Measured values published in PubChem BioAssay (NCI).
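Results reflect a 48-hour exposure of cells in 96-well plates to compound at five concentrations. GI50 marks 50% less growth. At the TGI there is no net growth.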

Tested on: SK-MEL-2 melanoma
Assay: inhibition of tumour cell growth, NCI panel, 48 h

Row | SMILES | GI50 | TGI
1 | NC(N)=N/N=C/c1c(-c2ccccn2)nc2sc(Cl)cn12 | 7.93 µM | 15.1 µM

Tested on: UO-31 renal
Assay: inhibition of tumour cell growth, NCI panel, 48 h

Row | SMILES | TGI | GI50
2 | COC(=O)/C=C\S/C(=C(/c1ccccc1)n1ccc(C(=O)OC)n1)c1ccccc1 | 38.7 µM | –
3 | COc1ccc(/C=N/Nc2nc3ccccc3c(=O)n2-c2ccccc2)c(OCc2ccccc2)c1 | > 100 µM | –
4 | CNC(=O)c1cc(Oc2ccc(NC(=O)Nc3ccc(Cl)c(OC(F)(F)F)c3)c(F)c2)ccn1 | 13.3 µM | 1.07 µM
5 | NC(N)=N/N=C/c1c(-c2ccccn2)nc2sc(Cl)cn12 | 14.8 µM | 7.85 µM

Tested on: OVCAR-4 ovarian
Assay: inhibition of tumour cell growth, NCI panel, 48 h

Row | SMILES | GI50 | TGI
6 | Cc1ccc(-c2nc(C(Cl)Cl)n3nc(-c4ccccc4)cc3n2)cc1 | 0.68 µM | 3.99 µM
7 | COC(=O)/C=C\S/C(=C(/c1ccccc1)n1ccc(C(=O)OC)n1)c1ccccc1 | – | > 100 µM
8 | COc1ccc(/C=N/Nc2nc3ccccc3c(=O)n2-c2ccccc2)c(OCc2ccccc2)c1 | – | > 100 µM
9 | CNC(=O)c1cc(Oc2ccc(NC(=O)Nc3ccc(Cl)c(OC(F)(F)F)c3)c(F)c2)ccn1 | 1.24 µM | > 33.2 µM

Tested on: NCI-H522 lung
Assay: inhibition of tumour cell growth, NCI panel, 48 h

Row | SMILES | GI50 | TGI
10 | Cc1ccc(-c2nc(C(Cl)Cl)n3nc(-c4ccccc4)cc3n2)cc1 | > 100 µM | > 100 µM
11 | COC(=O)/C=C\S/C(=C(/c1ccccc1)n1ccc(C(=O)OC)n1)c1ccccc1 | – | 48 µM
12 | COc1ccc(/C=N/Nc2nc3ccccc3c(=O)n2-c2ccccc2)c(OCc2ccccc2)c1 | – | > 100 µM
13 | CNC(=O)c1cc(Oc2ccc(NC(=O)Nc3ccc(Cl)c(OC(F)(F)F)c3)c(F)c2)ccn1 | 0.971 µM | 14.8 µM
14 | NC(N)=N/N=C/c1c(-c2ccccn2)nc2sc(Cl)cn12 | 7.86 µM | 15.3 µM

Tested on: LOX IMVI melanoma
Assay: inhibition of tumour cell growth, NCI panel, 48 h

Row | SMILES | GI50 | TGI
15 | Cc1ccc(-c2nc(C(Cl)Cl)n3nc(-c4ccccc4)cc3n2)cc1 | > 100 µM | > 100 µM
16 | COC(=O)/C=C\S/C(=C(/c1ccccc1)n1ccc(C(=O)OC)n1)c1ccccc1 | – | > 100 µM
17 | COc1ccc(/C=N/Nc2nc3ccccc3c(=O)n2-c2ccccc2)c(OCc2ccccc2)c1 | – | > 100 µM
18 | CNC(=O)c1cc(Oc2ccc(NC(=O)Nc3ccc(Cl)c(OC(F)(F)F)c3)c(F)c2)ccn1 | 1.76 µM | 25.2 µM
19 | NC(N)=N/N=C/c1c(-c2ccccn2)nc2sc(Cl)cn12 | 7.26 µM | 14 µM

Tested on: MCF7 breast
Assay: inhibition of tumour cell growth, NCI panel, 48 h

Row | SMILES | TGI | GI50
20 | COC(=O)/C=C\S/C(=C(/c1ccccc1)n1ccc(C(=O)OC)n1)c1ccccc1 | 28.7 µM | –
21 | COc1ccc(/C=N/Nc2nc3ccccc3c(=O)n2-c2ccccc2)c(OCc2ccccc2)c1 | > 100 µM | –
22 | CNC(=O)c1cc(Oc2ccc(NC(=O)Nc3ccc(Cl)c(OC(F)(F)F)c3)c(F)c2)ccn1 | 7.17 µM | 1.12 µM
23 | NC(N)=N/N=C/c1c(-c2ccccn2)nc2sc(Cl)cn12 | 50 µM | 13.2 µM

Tested on: SN12C renal
Assay: inhibition of tumour cell growth, NCI panel, 48 h

Row | SMILES | GI50 | TGI
24 | Cc1ccc(-c2nc(C(Cl)Cl)n3nc(-c4ccccc4)cc3n2)cc1 | > 100 µM | > 100 µM
25 | COC(=O)/C=C\S/C(=C(/c1ccccc1)n1ccc(C(=O)OC)n1)c1ccccc1 | – | > 100 µM
26 | COc1ccc(/C=N/Nc2nc3ccccc3c(=O)n2-c2ccccc2)c(OCc2ccccc2)c1 | – | > 100 µM
27 | CNC(=O)c1cc(Oc2ccc(NC(=O)Nc3ccc(Cl)c(OC(F)(F)F)c3)c(F)c2)ccn1 | 2.05 µM | 23 µM
28 | NC(N)=N/N=C/c1c(-c2ccccn2)nc2sc(Cl)cn12 | 6.84 µM | 13.3 µM

Tested on: CAKI-1 renal
Assay: inhibition of tumour cell growth, NCI panel, 48 h

Row | SMILES | GI50 | TGI
29 | Cc1ccc(-c2nc(C(Cl)Cl)n3nc(-c4ccccc4)cc3n2)cc1 | 0.31 µM | 1.49 µM
30 | COC(=O)/C=C\S/C(=C(/c1ccccc1)n1ccc(C(=O)OC)n1)c1ccccc1 | – | > 100 µM
31 | COc1ccc(/C=N/Nc2nc3ccccc3c(=O)n2-c2ccccc2)c(OCc2ccccc2)c1 | – | > 100 µM
32 | CNC(=O)c1cc(Oc2ccc(NC(=O)Nc3ccc(Cl)c(OC(F)(F)F)c3)c(F)c2)ccn1 | 2.89 µM | > 33.2 µM
33 | NC(N)=N/N=C/c1c(-c2ccccn2)nc2sc(Cl)cn12 | 8.59 µM | 15.6 µM

Tested on: NCI-H23 lung
Assay: inhibition of tumour cell growth, NCI panel, 48 h

Row | SMILES | GI50 | TGI
34 | Cc1ccc(-c2nc(C(Cl)Cl)n3nc(-c4ccccc4)cc3n2)cc1 | 1.17 µM | > 100 µM
35 | COC(=O)/C=C\S/C(=C(/c1ccccc1)n1ccc(C(=O)OC)n1)c1ccccc1 | – | > 100 µM
36 | COc1ccc(/C=N/Nc2nc3ccccc3c(=O)n2-c2ccccc2)c(OCc2ccccc2)c1 | – | > 100 µM
37 | CNC(=O)c1cc(Oc2ccc(NC(=O)Nc3ccc(Cl)c(OC(F)(F)F)c3)c(F)c2)ccn1 | 0.913 µM | 5.58 µM
38 | NC(N)=N/N=C/c1c(-c2ccccn2)nc2sc(Cl)cn12 | 11.5 µM | 19.1 µM

Tested on: RXF 393 renal
Assay: inhibition of tumour cell growth, NCI panel, 48 h

Row | SMILES | GI50 | TGI
39 | Cc1ccc(-c2nc(C(Cl)Cl)n3nc(-c4ccccc4)cc3n2)cc1 | 0.298 µM | 0.896 µM
40 | COC(=O)/C=C\S/C(=C(/c1ccccc1)n1ccc(C(=O)OC)n1)c1ccccc1 | – | 39.8 µM
41 | COc1ccc(/C=N/Nc2nc3ccccc3c(=O)n2-c2ccccc2)c(OCc2ccccc2)c1 | – | > 100 µM
42 | CNC(=O)c1cc(Oc2ccc(NC(=O)Nc3ccc(Cl)c(OC(F)(F)F)c3)c(F)c2)ccn1 | 3.58 µM | 18.9 µM

Tested on: SF-268 CNS
Assay: inhibition of tumour cell growth, NCI panel, 48 h

Row | SMILES | GI50 | TGI
43 | Cc1ccc(-c2nc(C(Cl)Cl)n3nc(-c4ccccc4)cc3n2)cc1 | 1.06 µM | 4.82 µM
44 | COC(=O)/C=C\S/C(=C(/c1ccccc1)n1ccc(C(=O)OC)n1)c1ccccc1 | – | 39.4 µM
45 | COc1ccc(/C=N/Nc2nc3ccccc3c(=O)n2-c2ccccc2)c(OCc2ccccc2)c1 | – | > 100 µM
46 | CNC(=O)c1cc(Oc2ccc(NC(=O)Nc3ccc(Cl)c(OC(F)(F)F)c3)c(F)c2)ccn1 | 2.44 µM | 14.2 µM
47 | NC(N)=N/N=C/c1c(-c2ccccn2)nc2sc(Cl)cn12 | 8.04 µM | 17.8 µM

Tested on: UACC-257 melanoma
Assay: inhibition of tumour cell growth, NCI panel, 48 h

Row | SMILES | TGI | GI50
48 | COC(=O)/C=C\S/C(=C(/c1ccccc1)n1ccc(C(=O)OC)n1)c1ccccc1 | > 100 µM | –
49 | COc1ccc(/C=N/Nc2nc3ccccc3c(=O)n2-c2ccccc2)c(OCc2ccccc2)c1 | > 100 µM | –
50 | CNC(=O)c1cc(Oc2ccc(NC(=O)Nc3ccc(Cl)c(OC(F)(F)F)c3)c(F)c2)ccn1 | 6.54 µM | 1.19 µM
51 | NC(N)=N/N=C/c1c(-c2ccccn2)nc2sc(Cl)cn12 | 14.8 µM | 7.45 µM

Tested on: SNB-19 CNS
Assay: inhibition of tumour cell growth, NCI panel, 48 h

Row | SMILES | TGI | GI50
52 | COC(=O)/C=C\S/C(=C(/c1ccccc1)n1ccc(C(=O)OC)n1)c1ccccc1 | 42.2 µM | –
53 | COc1ccc(/C=N/Nc2nc3ccccc3c(=O)n2-c2ccccc2)c(OCc2ccccc2)c1 | > 100 µM | –
54 | CNC(=O)c1cc(Oc2ccc(NC(=O)Nc3ccc(Cl)c(OC(F)(F)F)c3)c(F)c2)ccn1 | 20.7 µM | 3.06 µM
55 | NC(N)=N/N=C/c1c(-c2ccccn2)nc2sc(Cl)cn12 | 16 µM | 7.97 µM

Tested on: PC-3 prostate
Assay: inhibition of tumour cell growth, NCI panel, 48 h

Row | SMILES | TGI | GI50
56 | COC(=O)/C=C\S/C(=C(/c1ccccc1)n1ccc(C(=O)OC)n1)c1ccccc1 | 49.7 µM | –
57 | COc1ccc(/C=N/Nc2nc3ccccc3c(=O)n2-c2ccccc2)c(OCc2ccccc2)c1 | > 100 µM | –
58 | CNC(=O)c1cc(Oc2ccc(NC(=O)Nc3ccc(Cl)c(OC(F)(F)F)c3)c(F)c2)ccn1 | 19 µM | 1.48 µM
59 | NC(N)=N/N=C/c1c(-c2ccccn2)nc2sc(Cl)cn12 | 22 µM | 10.9 µM

Tested on: RPMI-8226 leukemia
Assay: inhibition of tumour cell growth, NCI panel, 48 h

Row | SMILES | GI50 | TGI
60 | Cc1ccc(-c2nc(C(Cl)Cl)n3nc(-c4ccccc4)cc3n2)cc1 | 0.499 µM | 3.11 µM
61 | COC(=O)/C=C\S/C(=C(/c1ccccc1)n1ccc(C(=O)OC)n1)c1ccccc1 | – | > 100 µM
62 | COc1ccc(/C=N/Nc2nc3ccccc3c(=O)n2-c2ccccc2)c(OCc2ccccc2)c1 | > 100 µM | > 100 µM
63 | CNC(=O)c1cc(Oc2ccc(NC(=O)Nc3ccc(Cl)c(OC(F)(F)F)c3)c(F)c2)ccn1 | 1.32 µM | 7.85 µM
